One assay addresses T1, S1P4 (Homo sapiens, UniProt O95977).
T1 sequence (O95977 1-384): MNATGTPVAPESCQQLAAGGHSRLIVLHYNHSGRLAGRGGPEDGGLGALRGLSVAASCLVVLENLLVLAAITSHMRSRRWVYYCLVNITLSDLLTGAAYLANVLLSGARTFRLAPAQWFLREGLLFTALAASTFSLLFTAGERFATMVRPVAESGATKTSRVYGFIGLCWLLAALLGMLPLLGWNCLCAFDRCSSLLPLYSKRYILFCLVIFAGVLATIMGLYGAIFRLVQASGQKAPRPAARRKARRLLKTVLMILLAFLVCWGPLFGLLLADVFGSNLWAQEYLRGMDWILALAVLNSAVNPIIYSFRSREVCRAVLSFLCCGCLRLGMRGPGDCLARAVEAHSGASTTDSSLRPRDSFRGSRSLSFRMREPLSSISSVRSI
Briefly: S1P receptor activity assay (calcium flux, FLIPR TETRA), S1P4. Format: cell-based. An excerpt:
(§1) Agonist percentage activation determinations were obtained by assaying sample compounds and referencing the Emax control for each receptor profiled. Antagonist percentage inhibition determinations were obtained by assaying sample compounds and referencing the control EC80 wells for each receptor profiled. The samples were run using a “Single Addition” assay protocol for the agonist and antagonist assay run. The protocol design was as follows:
(§2) Master stock solution: Unless specified otherwise, all sample compounds were diluted in 100% anhydrous DMSO including all serial dilutions. All control wells contained identical solvent final concentrations as did the sample compound wells.
(§3) Compound plate for assay: The sample compounds were transferred from a master stock solution into a daughter plate that was used in the assay. Each sample compound was diluted into assay buffer (1×HBSS with 20 mM HEPES and 2.5 mM Probenecid) at an appropriate concentration to obtain final concentrations.
(§4) Sample compounds were plated in an eight-point, four-fold dilution series in duplicate with a top concentration of 10 μM. The concentrations described here reflect the final concentration of the compounds during the antagonist assay.
(§5) Reference agonists were handled as mentioned above serving as assay control. The reference agonists were handled as described above for Emax.
(§6) Assay was read for 180 seconds using the […] (This assay run added sample compounds and reference agonist to respective wells). At the completion of the first “Single Addition” assay run, assay plate was removed from the […] and placed at 25° C. for seven (7) minutes.
(§7) Using the EC80 values determined during the agonist assay, stimulated all pre-incubated sample compound and reference antagonist (if applicable) wells with EC80 of reference agonist. Read for 180 seconds using the […] (This assay added reference agonist to respective wells—then fluorescence measurements were collected to calculate percentage inhibition values).
(§8) All plates were subjected to appropriate baseline corrections. Once baseline corrections were processed, maximum fluorescence values were exported and data manipulated to calculate percentage activation, percentage inhibition and Z′.

Another assay deals with S1P5 (Homo sapiens, UniProt Q9H228). Briefly: S1P receptor activity assay (calcium flux, FLIPR TETRA), S1P5. Format: cell-based.
Text: as §1, §2, §3, §4, §5, §6, §7, §8
(Calcium assays in cells follow changes in intracellular calcium, usually with a dye or a luminescent sensor.)

Another assay concerns the target S1P1 (Homo sapiens, UniProt P21453). Briefly: S1P receptor activity assay (calcium flux, FLIPR TETRA), S1P1. It is filed as cell-based.
Text: as §1, §2, §3, §4, §5, §6, §7, §8

Assay [1] has as its system OPCs (oligodendrocyte precursor cells). Briefly: OPC differentiation assay. It is filed as cell-based, Sprague Dawley rats. The following applies: 2 μM and 20 μM, 3-day incubation. As to the method: Enriched populations of oligodendrocytes were grown from post-natal day 2 (P2) female Sprague Dawley rats. The forebrain was dissected out and placed in Hank's buffered saline solution (HBSS; Invitrogen, Grand Island, N.Y.). The tissue was cut into 1 mm fragments and incubated at 37° C. for 15 minutes in 0.01% trypsin and 10 μg/mL DNase. Dissociated cells were plated on poly-L-lysine-coated T75 tissue culture flasks and grown at 37° C. for 10 days in Dulbecco's modified Eagle's medium (DMEM) with 20% fetal calf serum (Invitrogen). A2B5+OPCs were collected by shaking the flask overnight at 200 rpm and 37° C., resulting in a 95% pure population.
For the differentiation assay, 2 μM and 20 μM antagonist or the same concentrations of vehicle (DMSO) were applied to OPCs cultured in CNTF/T3 containing media. After a 3-day incubation, […], cell were lysed and then subjected to MSD (Meso Scale Discovery-R) analysis. EC50 was calculated by Prism using a nonlinear sigmoidal dose-response curvecells. […] After centrifugation at 14,000 g for 15 minutes, the supernatants were boiled in Laemmli sample buffer, subjected to 4-20% SDS-PAGE, and analyzed by Western blotting with anti-MBP, anti-myelin-associated glycoprotein (MAG), or anti-beta actin antibodies. […]

Another assay concerns the target T2, Human ATX protein (Homo sapiens, UniProt Q13822).
T2 construct: made in house
Briefly: Autotaxin (ATX) FRET assay with FS-3 substrate. Format: biochemical. The source says: ATX (Autotaxin) is a 125 KDa glycoprotein with lysophospholipase D (LPLD) activity that generates the bioactive lipid lysophosphatidic acid (LPA) from lysophosphatidylcholine (LPC). The ATX biochemical assay utilizes a FRET (fluorescence resonance energy transfer) technology platform. […] ATX catalyzes the hydrolysis of the substrate which separates the dabsyl quencher from the fluorescein reporter, which becomes fluorescent. The reaction is monitored by a SpectraMax M5 (Molecular Devices, Sunnyvale, Calif.) with at excitation wavelength 485 nm and emission wavelength 535 nm.
Fatty acid free-BSA (Sigma A8806): 10 mg/mL in H2O, stored at 4° C.
2×ATX assay buffer: 100 mM Tris, 280 mM NaCl, 10 mM KCl, 2 mM CaCl2, 2 mM MgCl2, pH 7.4.
Human ATX protein: expressed and purified in house. Stored at −80° C.
Substrate FS-3 (Echelon, L-2000): 100 μg in 77.74 μL H2O (1 mM stock), stored at −20° C.
Compound dilution—All compounds were provided at 10 mM in 100% DMSO. In the first well, 2 μL of 10 mM compound was added to 78 μL of DMSO (1:40 dilution). In subsequent wells 3-fold dilution (total 10 dilutions) were performed.
1×ATX assay buffer was made up with a final concentration of 1 mg/mL fatty acid free-BSA using 2×ATX assay buffer, 10 mg/ml fatty acid free-BSA and ddH2O.
38 μL was added per well to the assay plate. The final concentration of ATX in the reaction as 1.0 μg/mL.
2 μL per well of compounds was transferred to provide the desired concentration. The plate was centrifuged, then incubated at room temperature for 30 minutes on the shaker.
FS-3 was diluted with 1×ATX assay buffer to a concentration of FS-3 of 10 μM (5×). Then, 10 μL was added per well to the assay plate. The final concentration of FS-3 in the reaction was 2 μM. The plate was centrifuged. The plate was kept shaking at room temperature for 2 hours. Because FS-3 substrate is light sensitive, plates were kept covered and protected from light.

[2] abbreviates: calcium flux, top concentration 10 μM, the >5 μM sentence says only 'for S1P4', read-out: IC50 for S1P4 agonist activity.
Setting [3] is: calcium flux, top concentration 10 μM, read-out: IC50 for S1P5.
[4] abbreviates: calcium flux, top concentration 10 μM, the >5 μM sentence says only 'for S1P1', read-out: IC50 for S1P1 agonist activity.
The mark [5] stands for this setting: FS-3 2 μM, ATX 1.0 μg/mL, 2 hours at room temperature, read-out: IC50 (ATX).

Where two headings read alike, the source gives them in different places.

Sequence of S1P5 (Q9H228 whole entry): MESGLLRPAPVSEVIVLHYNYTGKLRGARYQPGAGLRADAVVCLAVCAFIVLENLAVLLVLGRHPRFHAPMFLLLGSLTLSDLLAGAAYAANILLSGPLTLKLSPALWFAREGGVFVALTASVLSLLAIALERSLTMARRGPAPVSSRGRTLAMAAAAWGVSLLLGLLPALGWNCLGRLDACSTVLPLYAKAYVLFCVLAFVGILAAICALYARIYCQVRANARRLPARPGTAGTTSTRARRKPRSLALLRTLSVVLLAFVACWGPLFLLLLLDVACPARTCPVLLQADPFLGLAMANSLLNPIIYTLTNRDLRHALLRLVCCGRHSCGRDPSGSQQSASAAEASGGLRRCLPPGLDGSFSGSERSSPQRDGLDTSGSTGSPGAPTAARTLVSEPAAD
Sequence of S1P1 (P21453 whole entry): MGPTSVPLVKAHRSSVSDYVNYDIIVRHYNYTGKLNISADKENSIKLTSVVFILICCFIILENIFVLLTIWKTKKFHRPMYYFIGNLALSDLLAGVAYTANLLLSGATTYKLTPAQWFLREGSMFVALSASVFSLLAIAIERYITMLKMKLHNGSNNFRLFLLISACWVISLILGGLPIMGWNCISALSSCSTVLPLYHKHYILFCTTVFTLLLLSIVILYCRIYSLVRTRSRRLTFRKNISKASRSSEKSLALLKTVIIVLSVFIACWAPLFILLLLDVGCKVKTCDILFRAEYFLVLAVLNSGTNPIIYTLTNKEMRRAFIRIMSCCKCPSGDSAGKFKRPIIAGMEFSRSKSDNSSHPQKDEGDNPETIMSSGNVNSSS

`CCCCCCCCOc1ccc(N2CCN(CCC(=O)O)CC2)cc1` [Example 14, 3-(4-(4-(Octyloxy)phenyl)piperazin-1-yl)propanoic acid]: the half-maximal inhibitory concentration (IC50) is not above 2 µM on S1P4, more than 5 µM at S1P5, more than 5 µM at S1P1 and more than 10 µM on Human ATX protein. For the same molecule, the “result in the OPC assay” value in assay [1] is “positive”.

For `CCCCCCCCOc1ccc(N2CCN(CC34CCC(C(=O)O)(CC3)CC4)CC2)cc1` [Example 16, 4-((4-(4-(Octyloxy)phenyl)piperazin-1-yl)methyl)bicyclo[2.2.2]octane-1-carboxylic acid], the concentration for half-maximal inhibition (IC50) at S1P4 is not above 5 µM; on S1P5 it was more than 5 µM; on S1P1, more than 5 µM; against Human ATX protein it was not above 5 µM. Moreover, the “result in the OPC assay” value in assay [1] was “positive”.

As to `CC[C@H]1CC[C@@H](Oc2ccc(C3CCN(CCC(=O)O)CC3)cc2)CC1` [Example 34, 3-(4-(4-((cis-4-Ethylcyclohexyl)oxy)phenyl)piperidin-1-yl)propanoic acid], the IC50 is more than 5 µM at S1P4 (setting [2]), more than 5 µM at S1P5 (setting [3]), more than 5 µM at S1P1 (setting [4]) and more than 10 µM on Human ATX protein (setting [5]).

Take `CC(C)(C)[C@H]1CC[C@H](Oc2ccc(N3CCN(CCCC(=O)O)CC3)cc2)CC1` [Example 18, 4-(4-(4-((trans-4-(tert-Butyl)cyclohexyl)oxy)phenyl)piperazin-1-yl)butanoic acid]: the 50% inhibitory concentration (IC50) at S1P4 (setting [2]) is 2 to 5 µM; on S1P5 (setting [3]), more than 5 µM; at S1P1 (setting [4]), more than 5 µM; at Human ATX protein (setting [5]), more than 10 µM.

Take `CC[C@H]1CC[C@H](Oc2ccc(C3CCN(CCC(=O)O)CC3)cc2)CC1` [Example 28, 3-(4-(4-((trans-4-ethylcyclohexyl)oxy)phenyl)piperidin-1-yl)propanoic acid]: the half-inhibitory concentration (IC50) at S1P4 (setting [2]) was more than 5 µM; on S1P5 (setting [3]), more than 5 µM; on S1P1 (setting [4]) it was more than 5 µM; at Human ATX protein (setting [5]) it was more than 10 µM.

Regarding `CC[C@H]1CC[C@@H](Oc2ccc(C3CCN(CCCC(=O)O)CC3)cc2)CC1` [Example 36, 4-(4-(4-((cis-4-Ethylcyclohexyl)oxy)phenyl)piperidin-1-yl)butanoic acid], the IC50 is 2 to 5 µM at S1P4 (setting [2]), more than 5 µM at S1P5 (setting [3]), more than 5 µM at S1P1 (setting [4]) and 5 to 10 µM at Human ATX protein (setting [5]).

For the molecule `CC[C@H]1CC[C@@H](Oc2ccc(C3CCN(CCCCC(=O)O)CC3)cc2)CC1` [Example 38, 5-(4-(4-((cis-4-Ethylcyclohexyl)oxy)phenyl)piperidin-1-yl)pentanoic acid], the IC50 on S1P4 (setting [2]) is not above 2 µM; at S1P5 (setting [3]) it was more than 5 µM; on S1P1 (setting [4]), 2 to 5 µM; on Human ATX protein (setting [5]), more than 10 µM.

With `CC[C@H]1CC[C@@H](Oc2ccc(C3=CCN(CCCC(=O)O)CC3)cc2)CC1` [Example 35, 4-(4-(4-((cis-4-Ethylcyclohexyl)oxy)phenyl)-5,6-dihydropyridin-1(2H)-yl)butanoic acid], the concentration for half-maximal inhibition (IC50) was not above 2 µM on S1P4, more than 5 µM at S1P5 (setting [3]), more than 5 µM at S1P1 and more than 10 µM at Human ATX protein (setting [5]).

As for `CC(C)(C)[C@H]1CC[C@H](Oc2ccc(C3CCN(CCC(=O)O)CC3)cc2)CC1` [Example 46, 3-(4-(4-((trans-4-(tert-Butyl)cyclohexyl)oxy)phenyl)piperidin-1-yl)propanoic acid], the IC50 is not above 2 µM on S1P4 (setting [2]), more than 5 µM on S1P5 (setting [3]), not above 2 µM on S1P1 (setting [4]) and 5 to 10 µM at Human ATX protein (setting [5]).

In the case of `O=C(O)CCCN1CCC(c2ccc(OC3CCC4(CCCC4)CC3)cc2)CC1` [Example 42, 4-(4-(4-(Spiro[4.5]decan-8-yloxy)phenyl)piperidin-1-yl)butanoic acid], the IC50 on S1P4 (setting [2]) is 2 to 5 µM; on S1P5 (setting [3]) it was more than 5 µM; on S1P1 (setting [4]) it was more than 5 µM; at Human ATX protein (setting [5]) it was 5 to 10 µM.

For `CCCCCCCCOc1ccc(N2CCN(CCCC(=O)O)CC2)cc1` [Example 15, 4-(4-(4-(Octyloxy)phenyl)piperazin-1-yl)butanoic acid], the IC50 was not above 2 µM at S1P4, more than 5 µM at S1P5, more than 5 µM at S1P1 and more than 10 µM against Human ATX protein.

`CCCCCCCCOc1ccc(C2CCCC(N3CCC(C(=O)O)CC3)C2)cc1` (stereo not drawn) [Example 9, 1-(3-(4-(octyloxy)phenyl)cyclohexyl)piperidine-4-carboxylic acid]: the concentration for half-maximal inhibition (IC50) at S1P4 (setting [2]) was more than 5 µM; at S1P5 (setting [3]), more than 5 µM; at S1P1 (setting [4]), more than 5 µM; at Human ATX protein (setting [5]), more than 10 µM.

Regarding `CC[C@H]1CC[C@H](Oc2ccc(C3=CCN(CCC(=O)O)CC3)cc2)CC1` [Example 27, 3-(4-(4-((trans-4-Ethylcyclohexyl)oxy)phenyl)-5,6-dihydropyridin-1(2H)-yl)propanoic acid], the IC50 at S1P4 is more than 5 µM; at S1P5 (setting [3]), more than 5 µM; on S1P1, more than 5 µM; at Human ATX protein (setting [5]), 5 to 10 µM.

The term IC50 denotes the midpoint of a concentration-inhibition curve.
